Like-named read-outs stand apart in the source and are kept apart here.
Columns and labels:
MycG4 (MycPu22 DNA) = assay: FRET-melting assay (thermal stabilization of MycG4); assay type: binding, human; settings: FIG. 4
Experimental: To confirm the stabilizing effect of indenoisoquinolines on MycG4, the Tm values of MycG4 were measured in the presence of indenoisoquinoline compounds in 10 mM K^+ using dual-3′-FAM- and 5′-TAMRA-labeled MycPu22 DNA by FRET-melting experiments. MycPu22 DNA forms a single MycG4 structure and was used for NMR structure determination (FIG. 1B, right).^43 Therefore, MycPu22 provides the best molecular system for MycG4 and was used in all the subsequent experiments. […] (FIG. 2B). A clear positive correlation was observed between the indenoisoquinolines' ability to induce MycG4 formation and to increase its thermal stability (FIG. 2C).
FRET-melting experiments. The stock solution containing 100 μM 3′-TAMRA (Ex. 555 nm/Em. 580 nm), 5′-FAM (Ex. 490 nm/Em. 520 nm) dual-labeled MycPu22 DNA sequence was first diluted to 2 μM using 7.5 mM KCl, 2.5 mM phosphate buffer, pH 7.0. […] With gradually increasing temperature, the MycPu22 DNA is unfolded from the G4 form to a single-stranded conformation where the FAM is far apart to the TAMRA, which results in a high FAM fluorescence. Melting curves for the determination of Tm were then obtained by recording FAM fluorescence with increasing temperatures from 25 to 95° C. at a rate of 0.9° C./min using a QuantStudio 6 Flex Real-Time PCR System. The Tm values were determined by the maximum of the first derivative plot of the melting curves. […]

[1] = test system: MYC protein expression in MCF-7 breast cancer cells; assay: Western blotting of MYC protein level in MCF-7 cells; assay type: cell-based, human; settings: Homo sapiens, MCF7; western blotting, MCF-7 cells, 0.5, 1, 2, and 4 μM, 24 hours; read-out: MYC Inhibition
Experimental: MCF-7 cells were incubated with each compound at four concentrations (0.5, 1, 2, and 4 μM) for 24 hours, and the MYC protein levels were measured (FIG. 3A and FIGS. 12 A to 12 F).
Cells were incubated at 37° C. with 5% CO2.
The gels were cut into strips that contained the proteins of interest and transferred to nitrocellulose membrane (I323002, Invitrogen) using an iBlot 2 Dry Transfer Device (Invitrogen). Immunoblotting was carried out according to standard procedures using the ECL detection method. The membrane was hybridized with the following antibodies: monoclonal anti-MYC (1:1000 dilution; rabbit, Cell Signaling Technology), monoclonal anti-GAPDH (1:2000 dilution; rabbit, Cell Signaling Technology).

NCI-60 cancer cell lines = assay: NCI-60 cancer cell line drug screen (GI50, MGM); assay type: cell-based, human; settings: Homo sapiens; for GI50: read-out: Antiproliferative Activities [GI50 (μM)]
Experimental: Cancer cells were incubated with the test compounds at five concentrations ranging from 100 μM to 10 nM for 48 h. […] The approximate average of GI50 values across the entire panel of NCI-60 cancer cell lines for each compound was recorded as the MGM value.

| SMILES | MycG4 binding and stabilizing activity (SAR) (MycG4 (MycPu22 DNA)) | minimal effective concentration [1] [µM] | GI50 (NCI-60 cancer cell lines; A549, Non-Small Cell Lung Cancer, A549/ATCC) [µM] | GI50 (NCI-60 cancer cell lines; CCRF-CEM, Leukemia, CCRF-CEM) [µM] | GI50 (NCI-60 cancer cell lines; COLO 205, Colon Cancer, COLO 205) [µM] | GI50 (NCI-60 cancer cell lines; EKVX, Non-Small Cell Lung Cancer, EKVX) [µM] | GI50 (NCI-60 cancer cell lines; HCC 2998, Colon Cancer, HCC-2998) [µM] | GI50 (NCI-60 cancer cell lines; HCT-116, Colon Cancer, HCT-116) [µM] | GI50 (NCI-60 cancer cell lines; HL-60, Leukemia, HL-60(TB)) [µM] | GI50 (NCI-60 cancer cell lines; HOP-92, Non-Small Cell Lung Cancer, HOP-92) [µM] | GI50 (NCI-60 cancer cell lines; Leukemia, SR) [µM] | GI50 (NCI-60 cancer cell lines; MOLT-4, Leukemia, MOLT-4) [µM] | GI50 (NCI-60 cancer cell lines; NCI-H23, Non-Small Cell Lung Cancer, NCI-H23) [µM] | GI50 (NCI-60 cancer cell lines; NCI-H226, Non-Small Cell Lung Cancer, NCI-H226) [µM] | GI50 (NCI-60 cancer cell lines; NCI-H322M, Non-Small Cell Lung Cancer, NCI-H322M) [µM] | GI50 (NCI-60 cancer cell lines; NCI-H460, Non-Small Cell Lung Cancer, NCI-H460) [µM] | GI50 (NCI-60 cancer cell lines; NCI-H522, Non-Small Cell Lung Cancer, NCI-H522) [µM] | GI50 (NCI-60 cancer cell lines; RPMI-8226, Leukemia, RPMI-8226) [µM] | mean GI50 across NCI-60 panel (MGM) (NCI-60 cancer cell lines; average of GI50 values across the entire panel of NCI-60 cancer cell lines) [µM] |
| --- | --- | --- | --- | --- | --- | --- | --- | --- | --- | --- | --- | --- | --- | --- | --- | --- | --- | --- | --- |
| O=C1c2ccccc2-c2c1c1ccccc1c(=O)n2CCCN1CCOCC1 [Compound 16] | weakened |  |  |  |  |  |  |  |  |  |  |  |  |  |  |  |  |  |  |
| COc1cc2c3c(n(CCCN(C)C)c(=O)c2cc1OC)-c1cc2c(cc1C3=O)OCO2 [Compound 47] | medium | 2 | 0.89 | < 0.01 | 0.94 | 1.46 | 0.13 | 0.22 | 1.6 | 1.3 | < 0.01 | < 0.01 | 0.19 | 1.4 | 1.56 | 0.28 | 0.31 | 0.3 | 0.39 |
